Measurements: patent EP2669372A1, “HPPD variants and methods of use” (Bayer CropScience AG, priority 2010, dated 2012)
Read-outs that look alike come from different tables or passages of the source.

Tests used:
Test in all cases: biochemical
[1] = target: T1, Arabidopsis HPPD single point mutant "SEQ ID No. 35" (Arabidopsis thaliana, UniProt P93836, E252S)
T1 construct: encoding mutant HPPD polypeptide, plus containing at the 5' end a nucleic acid encoding an alanine and 6 histidine amino acids; Ala + His6 behind Met1 (N); made in house; host or cells: E. coli BL21 (DE3) (described for the wild type construct)
T1 sequence (P93836 whole entry E252S): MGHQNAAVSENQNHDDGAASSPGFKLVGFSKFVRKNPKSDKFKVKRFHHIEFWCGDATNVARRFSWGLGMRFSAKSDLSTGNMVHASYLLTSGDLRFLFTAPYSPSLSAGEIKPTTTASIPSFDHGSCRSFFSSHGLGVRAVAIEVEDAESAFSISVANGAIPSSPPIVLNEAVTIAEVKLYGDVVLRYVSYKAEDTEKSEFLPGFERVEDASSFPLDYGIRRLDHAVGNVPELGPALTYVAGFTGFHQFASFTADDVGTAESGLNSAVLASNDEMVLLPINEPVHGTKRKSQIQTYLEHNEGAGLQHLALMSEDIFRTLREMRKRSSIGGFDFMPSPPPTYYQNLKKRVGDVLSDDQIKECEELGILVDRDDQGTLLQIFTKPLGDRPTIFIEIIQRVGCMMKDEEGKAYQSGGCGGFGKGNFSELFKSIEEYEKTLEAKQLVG
Excerpt: (§1) In this content, pI50-value means the log value of the concentration of inhibitor necessary to inhibit 50% of the enzyme activity in molar concentration.

[2] = target: T2, Arabidopsis HPPD single point mutant "SEQ ID No. 40" (Arabidopsis thaliana, UniProt P93836, V269A)
T2 construct: encoding mutant HPPD polypeptide, plus containing at the 5' end a nucleic acid encoding an alanine and 6 histidine amino acids; made in house; host or cells: E. coli BL21 (DE3) (described for the wild type construct)
T2 sequence (P93836 whole entry V269A): as the sequence (P93836 whole entry E252S) above, with S252E, V269A counted along it
Excerpt: as §1

[3] = target: T3, Arabidopsis HPPD single point mutant "SEQ ID No. 42" (Arabidopsis thaliana, UniProt P93836, P280A)
T3 construct: encoding mutant HPPD polypeptide, plus containing at the 5' end a nucleic acid encoding an alanine and 6 histidine amino acids; made in house; host or cells: E. coli BL21 (DE3) (described for the wild type construct)
T3 sequence (P93836 whole entry P280A): as the sequence (P93836 whole entry E252S) above, with S252E, P280A counted along it
Excerpt: as §1

[4] = target: T4, Arabidopsis HPPD single point mutant "SEQ ID No. 44" (Arabidopsis thaliana, UniProt P93836, L368M)
T4 construct: encoding mutant HPPD polypeptide, plus containing at the 5' end a nucleic acid encoding an alanine and 6 histidine amino acids; made in house; host or cells: E. coli BL21 (DE3) (described for the wild type construct)
T4 sequence (P93836 whole entry L368M): as the sequence (P93836 whole entry E252S) above, with S252E, L368M counted along it
Excerpt: as §1

[5] = target: T5, Arabidopsis HPPD single point mutant "SEQ ID No. 46" (Arabidopsis thaliana, UniProt P93836, K421I)
T5 construct: encoding mutant HPPD polypeptide, plus containing at the 5' end a nucleic acid encoding an alanine and 6 histidine amino acids; made in house; host or cells: E. coli BL21 (DE3) (described for the wild type construct)
T5 sequence (P93836 whole entry K421I): as the sequence (P93836 whole entry E252S) above, with S252E, K421I counted along it
Excerpt: as §1

[6] = target: T6, Arabidopsis HPPD single point mutant "SEQ ID No. 48" (Arabidopsis thaliana, UniProt P93836, K421Q)
T6 construct: encoding mutant HPPD polypeptide, plus containing at the 5' end a nucleic acid encoding an alanine and 6 histidine amino acids; made in house; host or cells: E. coli BL21 (DE3) (described for the wild type construct)
T6 sequence (P93836 whole entry K421Q): as the sequence (P93836 whole entry E252S) above, with S252E, K421Q counted along it
Excerpt: as §1

[7] = target: T7, Arabidopsis HPPD single point mutant "SEQ ID No. 50" (Arabidopsis thaliana, UniProt P93836, K421V)
T7 construct: encoding mutant HPPD polypeptide, plus containing at the 5' end a nucleic acid encoding an alanine and 6 histidine amino acids; made in house; host or cells: E. coli BL21 (DE3) (described for the wild type construct)
T7 sequence (P93836 whole entry K421V): as the sequence (P93836 whole entry E252S) above, with S252E, K421V counted along it
Excerpt: as §1

SMILES	IC50 [1] [µM]	IC50 [2] [µM]	IC50 [3] [µM]	IC50 ([4]; read-out: pI50 (converted)) [µM]	IC50 [5] [µM]	IC50 [6] [µM]	IC50 [7] [µM]	IC50 [4] [µM]
Cc1nn(C)c(O)c1C(=O)c1ccc(C(F)(F)F)cc1S(C)(=O)=O [Pyrasulfotole]	50.1	39.8	39.8	10	50.1	15.8	39.8	
Cc1ccc(S(=O)(=O)Oc2c(C(=O)c3ccc(Cl)cc3Cl)c(C)nn2C)cc1 [Pyrazolat]	20	39.8	20		31.6	10	31.6	12.6
